ChEMBL document CHEMBL3885881, “DrugMatrix”
Where “and” joins values, the source holds several entries; their conditions need not be identical. Identical values can stand only once.

Organism: Rattus norvegicus
Test: DrugMatrix - Regimen: Daily Repeat
Type: toxicity, organism-based, Sprague-Dawley
Set-up: regimen Daily Repeat, gender Male, age 6-8 weeks
Conditions: in vivo, po, route oral GAVAGE, vehicle 100 % WATER; for ABSOLUTE BASOPHIL / ABSOLUTE LYMPHOCYTE / ABSOLUTE MONOCYTE / ABSOLUTE SEGMENTED NEUTROPHIL / BASOPHIL / EOSINOPHIL / ERYTHROCYTE COUNT / HEMATOCRIT / HEMOGLOBIN / LEUKOCYTE COUNT / LYMPHOCYTE / MEAN CORPUSCULAR HEMOGLOBIN / MEAN CORPUSCULAR HEMOGLOBIN CONCENTRATION / MEAN CORPUSCULAR VOLUME / MONOCYTE / NEUTROPHIL / NUCLEATED RED BLOOD CELLS / PLATELET COUNT / ABSOLUTE EOSINOPHIL: tissue Blood; for ALANINE AMINOTRANSFERASE / ALBUMIN / ALKALINE PHOSPHATASE / ASPARTATE AMINOTRANSFERASE / BLOOD UREA NITROGEN / CARBON DIOXIDE / CHLORIDE / CHOLESTEROL / CREATINE PHOSPHOKINASE / CREATININE / GLUCOSE / LACTATE DEHYDROGENASE / LIPASE / PHOSPHORUS / POTASSIUM / SODIUM / TOTAL BILIRUBIN / TOTAL PROTEIN / URIC ACID: tissue Plasma
[1] = 0 mg/kg, 72 h, dose level Control, time 3 day
[2] = 0 mg/kg, 120 h, dose level Control, time 5 day
[3] = 4.5 mg/kg, 72 h, dose level Low, time 3 day

COc1ccc2c(c1)c(CC(=O)O)c(C)n2C(=O)c1ccc(Cl)cc1 [INDOMETHACIN]
ABSOLUTE BASOPHIL [1]: 0 CELLS/uL
ABSOLUTE LYMPHOCYTE [1]: 6747 CELLS/uL and 14108.83 CELLS/uL
ABSOLUTE MONOCYTE [1]: 73 CELLS/uL and 81 CELLS/uL
ABSOLUTE SEGMENTED NEUTROPHIL [1]: 480 CELLS/uL and 818.67 CELLS/uL
BASOPHIL [1]: 0%
EOSINOPHIL [1]: 0% and 0.67%
ERYTHROCYTE COUNT [1]: 5.14 x10E6/uL and 5.56 x10E6/uL
HEMATOCRIT [1]: 32.27% and 34.5%
HEMOGLOBIN [1]: 12.53 G/DL and 13.45 G/DL
LEUKOCYTE COUNT [1]: 7.3 x10E3/uL and 15.1 x10E3/uL
LYMPHOCYTE [1]: 93%
MEAN CORPUSCULAR HEMOGLOBIN [1]: 24.37 pg and 24.2 pg
MEAN CORPUSCULAR HEMOGLOBIN CONCENTRATION [1]: 38.87 G/DL and 38.98 G/DL
MEAN CORPUSCULAR VOLUME [1]: 62.7 fL and 62.07 fL
MONOCYTE [1]: 1% and 0.5%
NEUTROPHIL [1]: 6% and 5.83%
NUCLEATED RED BLOOD CELLS [1]: 0 /100WBC
PLATELET COUNT [1]: 1023 x10E3/uL and 1193.33 x10E3/uL
ALANINE AMINOTRANSFERASE [1]: 49.33 u/L and 60.33 u/L
ALBUMIN [1]: 3.73 G/DL and 4 G/DL
ALKALINE PHOSPHATASE [1]: 331 u/L and 334.83 u/L
ASPARTATE AMINOTRANSFERASE [1]: 79.67 u/L and 74.5 u/L
BLOOD UREA NITROGEN [1]: 15.33 mg/dL and 13.5 mg/dL
CARBON DIOXIDE [1]: 30.33 mmol/L
CHLORIDE [1]: 100.67 MEQ/L and 98.33 MEQ/L
CHOLESTEROL [1]: 77 mg/dL and 71.17 mg/dL
CREATINE PHOSPHOKINASE [1]: 319.67 u/L and 212 u/L
CREATININE [1]: 0.11 mg/dL and 0.21 mg/dL
GLUCOSE [1]: 169 mg/dL and 173.17 mg/dL
LACTATE DEHYDROGENASE [1]: 113.33 u/L and 101.5 u/L
LIPASE [1]: 10.33 u/L and 24.17 u/L
PHOSPHORUS [1]: 11.97 mg/dL and 10.87 mg/dL
POTASSIUM [1]: 5.06 MEQ/L and 6.06 MEQ/L
SODIUM [1]: 144.13 MEQ/L and 140.58 MEQ/L
TOTAL BILIRUBIN [1]: 0.2 mg/dL and 0.17 mg/dL
TOTAL PROTEIN [1]: 5.8 G/DL and 5.9 G/DL
URIC ACID [1]: 0.57 mg/dL and 1.23 mg/dL
ABSOLUTE BASOPHIL [2]: 0 CELLS/uL
ABSOLUTE EOSINOPHIL [2]: 31.33 CELLS/uL and 34.5 CELLS/uL
ABSOLUTE LYMPHOCYTE [2]: 7806.33 CELLS/uL and 8181 CELLS/uL
ABSOLUTE MONOCYTE [2]: 202 CELLS/uL and 82.67 CELLS/uL
ABSOLUTE SEGMENTED NEUTROPHIL [2]: 927 CELLS/uL and 435.17 CELLS/uL
BASOPHIL [2]: 0%
EOSINOPHIL [2]: 0.33% and 0.5%
ERYTHROCYTE COUNT [2]: 4.96 x10E6/uL and 5.31 x10E6/uL
HEMATOCRIT [2]: 32.37% and 33.83%
HEMOGLOBIN [2]: 12.53 G/DL and 13.37 G/DL
LEUKOCYTE COUNT [2]: 8.97 x10E3/uL and 8.73 x10E3/uL
LYMPHOCYTE [2]: 87.33% and 93.5%
MEAN CORPUSCULAR HEMOGLOBIN [2]: 25.27 pg and 25.2 pg
MEAN CORPUSCULAR HEMOGLOBIN CONCENTRATION [2]: 38.7 G/DL and 39.53 G/DL
MEAN CORPUSCULAR VOLUME [2]: 65.23 fL and 63.73 fL
MONOCYTE [2]: 2.33% and 1%
NEUTROPHIL [2]: 10% and 5%
NUCLEATED RED BLOOD CELLS [2]: 0 /100WBC
PLATELET COUNT [2]: 1189.33 x10E3/uL and 1057.33 x10E3/uL
ALANINE AMINOTRANSFERASE [2]: 53.33 u/L and 54.33 u/L
ALBUMIN [2]: 3.97 G/DL and 4.07 G/DL
ALKALINE PHOSPHATASE [2]: 326 u/L and 308.67 u/L
ASPARTATE AMINOTRANSFERASE [2]: 59.67 u/L and 83.17 u/L
BLOOD UREA NITROGEN [2]: 15 mg/dL and 14 mg/dL
CARBON DIOXIDE [2]: 33.67 mmol/L and 34 mmol/L
CHLORIDE [2]: 105 MEQ/L and 98 MEQ/L
CHOLESTEROL [2]: 73 mg/dL and 71.33 mg/dL
CREATINE PHOSPHOKINASE [2]: 208.33 u/L and 266.5 u/L
CREATININE [2]: 0.1 mg/dL and 0.27 mg/dL
GLUCOSE [2]: 153.33 mg/dL and 133 mg/dL
LACTATE DEHYDROGENASE [2]: 62 u/L and 127 u/L
LIPASE [2]: 10.33 u/L and 11.67 u/L
PHOSPHORUS [2]: 10.93 mg/dL and 10.6 mg/dL
POTASSIUM [2]: 5.5 MEQ/L and 6.17 MEQ/L
SODIUM [2]: 147.27 MEQ/L and 142.68 MEQ/L
TOTAL BILIRUBIN [2]: 0.17 mg/dL and 0.15 mg/dL
TOTAL PROTEIN [2]: 5.87 G/DL and 6.03 G/DL
URIC ACID [2]: 0.4 mg/dL and 0.75 mg/dL
ABSOLUTE BASOPHIL [3]: 0 CELLS/uL
ABSOLUTE EOSINOPHIL [3]: 0 CELLS/uL
ABSOLUTE LYMPHOCYTE [3]: 7564.67 CELLS/uL
ABSOLUTE MONOCYTE [3]: 197.67 CELLS/uL
ABSOLUTE SEGMENTED NEUTROPHIL [3]: 937.67 CELLS/uL
BASOPHIL [3]: 0%
EOSINOPHIL [3]: 0%
ERYTHROCYTE COUNT [3]: 5.16 x10E6/uL
